Reference: PMC11432795, “Mutagenesis of the Peptide Inhibitor of ASIC3 Channel Introduces Binding to Thumb Domain of ASIC1a but Reduces Analgesic Activity” (Marine Drugs, 2024)
Positions of bridges follow the written chain, without caps; N, C: chain ends. Residues, ends and D or L forms follow the SMILES beside them. No end group written: not given here.

Tests used:
[1] = target: T1, rat ASIC1a channel (Rattus norvegicus, UniProt P55926); assay: Two-electrode voltage clamp, rat ASIC1a in X. laevis oocytes; assay type: cell-based; details: pH 5.5 stimulus, mean ± S.E.M., 5 cells
T1 construct: expressed in transfected cells; host or cells: Xenopus laevis oocytes injected with mRNA made from a pCI-rASIC1a plasmid
T1 sequence (P55926 1-526): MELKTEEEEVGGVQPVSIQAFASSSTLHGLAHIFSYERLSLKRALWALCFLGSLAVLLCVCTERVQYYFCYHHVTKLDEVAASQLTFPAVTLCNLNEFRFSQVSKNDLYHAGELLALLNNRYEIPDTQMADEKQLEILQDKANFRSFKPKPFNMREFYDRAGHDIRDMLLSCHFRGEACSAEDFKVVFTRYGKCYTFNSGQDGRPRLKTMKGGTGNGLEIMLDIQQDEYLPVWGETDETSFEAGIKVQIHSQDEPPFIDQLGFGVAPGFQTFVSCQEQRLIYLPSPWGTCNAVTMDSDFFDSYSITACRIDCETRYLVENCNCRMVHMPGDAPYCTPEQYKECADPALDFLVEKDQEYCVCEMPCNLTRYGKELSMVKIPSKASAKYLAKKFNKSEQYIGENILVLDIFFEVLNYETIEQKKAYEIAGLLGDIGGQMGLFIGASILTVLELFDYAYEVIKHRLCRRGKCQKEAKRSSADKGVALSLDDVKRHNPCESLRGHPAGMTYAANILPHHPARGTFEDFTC
Description: (§1) Figure 3 The effect of mutant peptides S16K and A23K on rat ASIC1a and ASIC3 channels. […] (B) Dose–response curves for the inhibitory effect of mutant peptides on ASIC1a. Each data point represents data from 5 cells. (C) Representative current traces of Ugr9-1, S16K, and A23K at a concentration of 12.5 µM on ASIC3. […] Each point represents data from 5 cells. The depicted currents were induced by a pH 5.5 stimulus following a conditioning pH of 7.4, with peptides applied for 30 s before the pH stimulus. The holding potential (Vh) was −50 mV, and the time interval between applications ranged from 1 to 2 min. Data are presented as mean ± S.E.M.
(§2) A small portion of the ovary was isolated from frogs under anesthesia induced by a 0.17% solution of procaine methanesulphonate (MS222) (Sigma), followed by treatment with collagenase (1 mg/mL) at room temperature for 2 h. Oocytes at stages IV and V, devoid of follicular membranes, were transferred to ND-96 medium (containing 96 mM NaCl, 5 mM HEPES, 2 mM KCl, 1.8 mM CaCl2, 1 mM MgCl2, pH 7.4). mRNA synthesis was performed from pcDNA3.1 vectors (Invitrogen, Carlsbad, CA, USA) containing the rat ASIC3 gene, as well as pCI vectors containing genes for rat ASIC1a, its mutant analogues, and ASIC1b. mRNA (2.5–10 ng) was then injected into the oocytes. For the ASIC1a/3 heteromeric channels, the mRNA encoding the ASIC1a and ASIC3 subunits were injected in a 1:5 ratio, respectively. Subsequently, the oocytes were incubated for 2–3 days at a temperature of 17–19 °C in ND96 medium supplemented with gentamicin and streptomycin (20 µg/mL each).
(§3) Whole-cell electrophysiological recordings of ASIC channels were conducted using a two-electrode voltage-clamp setup. Microelectrodes were filled with 3 M KCl. Recordings from oocytes were carried out at a holding potential of −50 mV, with data filtered at 10 Hz and sampled at a rate of 100 Hz using an L780M ADC (LCard, Moscow, Russia). The synchronized delivery of solutions into the chamber and recording of electrophysiological results were carried out using in-house software v.2. Activation of ASIC channels occurred through rapid pH changes in the solution, achieved by replacing the working solution in the chamber with ND96-based solutions at varying pH levels. Specifically, HEPES was substituted with 10 mM MES for pH 5.5–6.5 and MOPS for pH 6.7–7.0.
(§4) Fresh peptide solutions were meticulously prepared in ND96 buffer with a pH of 7.43 immediately before experiments, with strict control over the pH levels. Peptides were applied for 30 s at a conditioning pH of 7.43 before acid stimulation of the channel. The interval between applications was maintained at a minimum of 1.5 to 2 min.
(§5) Electrophysiological data analysis was conducted using OriginPro 2018 software (OriginLab, Northampton, MA, USA). Dose–response relationships for Ugr9a-1, S16K, and A23K peptides were fitted using a Hill function: F1(x) = A − A/(1 + (x/IC50)^nH), where F1(x) represents the amplitude of the current at concentration x of the peptide, A is the maximum amplitude of the current, IC50 is the half-maximum inhibitory concentration of the peptide, and nH is the Hill coefficient.

[2] = target: T2, rat ASIC3 channel (Rattus norvegicus, UniProt O35240); assay: Two-electrode voltage clamp, rat ASIC3 in X. laevis oocytes; assay type: cell-based; details: pH 5.5 stimulus, mean ± S.E.M., 5 cells
T2 construct: expressed in transfected cells; host or cells: Xenopus laevis oocytes injected with mRNA made from pcDNA3.1-rat ASIC3
T2 sequence (O35240 1-533): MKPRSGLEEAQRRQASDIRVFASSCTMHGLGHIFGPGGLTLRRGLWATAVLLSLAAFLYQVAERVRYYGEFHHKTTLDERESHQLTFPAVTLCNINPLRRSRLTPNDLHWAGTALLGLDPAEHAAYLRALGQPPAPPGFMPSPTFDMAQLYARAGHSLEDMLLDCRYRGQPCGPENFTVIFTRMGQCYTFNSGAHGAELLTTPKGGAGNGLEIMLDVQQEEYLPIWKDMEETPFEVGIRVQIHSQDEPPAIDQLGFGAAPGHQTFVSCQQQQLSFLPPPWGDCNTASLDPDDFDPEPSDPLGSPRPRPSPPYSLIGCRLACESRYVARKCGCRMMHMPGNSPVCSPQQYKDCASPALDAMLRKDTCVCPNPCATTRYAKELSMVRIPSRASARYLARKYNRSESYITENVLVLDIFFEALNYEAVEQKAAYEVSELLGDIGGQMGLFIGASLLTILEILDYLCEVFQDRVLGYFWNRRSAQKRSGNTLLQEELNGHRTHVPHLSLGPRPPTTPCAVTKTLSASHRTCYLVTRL
Description: as §1, §2, §3, §4, §5

[3] = cited from earlier work; for analgesic effect on thermal hypersensitivity caused by inflammation: ref [31],[32]; for analgesic effects: ref [16],[17]
Source text: Selective ligands targeting specific ASIC isoforms are invaluable for structural and functional investigations. Peptide ligands sourced from various animal venoms have emerged as such tools. […] Bot ... || The 29-amino acid peptide Ugr9a-1, isolated from the venom of the northern sea anemone Urticina grebelnyi, represents a structural class of toxins termed “boundless β-hairpin”. […] While the significant involvement of ASIC3 channels in acid-induced, chronic neuropathic and inflammatory pain has been extensively reported, the role of ASIC1a remains less clear.

[4] = system: ASIC1a D355A mutant channel; details: ref [23],[28]; cited from earlier work
Source text: (§6) Electrophysiological experimentation confirmed the activity of recombinant S16K and A23K mutants against rat ASIC1a channels. […] This fact was in good agreement with molecular docking results that predicted tighter interactions of the lysine residue at position 23 with Asp355 and Glu357 residues of the channel. […] To confirm the critical role of th ...

[5] = system: ASIC1a E357A mutant channel; details: ref [23],[28]; cited from earlier work
Source text: as §6

[6] = system: ASIC1a channel; details: cited from earlier work
Source text: Selective ligands targeting specific ASIC isoforms are invaluable for structural and functional investigations. Peptide ligands sourced from various animal venoms have emerged as such tools. […] Bot ...

[7] = target: rat ASIC3 channel (homomeric) (rat) (UniProt O35240)

With `CC[C@H](C)[C@H](N)C(=O)N[C@@H](CO)C(=O)N[C@H](C(=O)N[C@@H](CC(=O)O)C(=O)N1CCC[C@H]1C(=O)N1CCC[C@H]1C(=O)N[C@H]1CSSC[C@@H]2NC(=O)[C@H](CC(N)=O)NC(=O)CNC(=O)[C@H](CCCCN)NC(=O)CNC(=O)[C@H](CC(=O)O)NC(=O)[C@H](CCCNC(=N)N)NC(=O)[C@H](Cc3c[nH]cn3)NC(=O)[C@H](Cc3ccc(O)cc3)NC(=O)[C@H](CSSC[C@@H](C(=O)NCC(=O)N[C@@H](C)C(=O)N[C@H](C(=O)O)C(C)C)NC(=O)CNC(=O)[C@H](Cc3ccc(O)cc3)NC(=O)[C@H](C)NC(=O)[C@H](CC(=O)O)NC(=O)[C@H](Cc3ccc(O)cc3)NC(=O)[C@H](C(C)C)NC2=O)NC(=O)[C@H](Cc2ccccc2)NC(=O)[C@H](CCCNC(=N)N)NC1=O)[C@@H](C)CC` [S16K] (H-ISIDPPCRFCYHRDGKGNCVYDAYGCGAV-OH; disulfide 7-19, 10-26) as the molecule, how does the “Hill slope (nH)” value ([1]; inhibition of rat ASIC1a, conditioning pH 7.4) read?
Its value is 2.86 ± 0.09.

And the IC50 ([1]; rat ASIC1a, X. laevis oocytes, TEVC, Vh −50 mV, conditioning pH 7.4, peptide 30 s before stimulus, read-out: half-maximal inhibitory concentration (IC50))?
The IC50 was 22.7 ± 0.42 µM.

What about the nH ([2]; inhibition of rat ASIC3, conditioning pH 7.4) of the same molecule?
Its nH is 2.16 ± 0.24.

What about the IC50 ([2]; rat ASIC3, X. laevis oocytes, TEVC, Vh −50 mV, conditioning pH 7.4, peptide 30 s before stimulus) of the same molecule?
The IC50 was 35.8 ± 4.03 µM.

For `COc1cc2c(cc1O)[C@H](Cc1ccc(Oc3cc(C[C@@H]4NCCc5cc(OC)c(O)cc54)ccc3O)cc1)NCC2` [lindoldhamine], which “analgesic effect on thermal hypersensitivity caused by inflammation” value [3] is on record?
The value was “substantial analgesic effects”.

With `O=C(O)C[C@H](C(=O)O)[C@@H](OC(=O)C1=Cc2cc(O)c(O)cc2[C@@H](c2ccc(O)c(O)c2)[C@@H]1C(=O)O[C@@H](C(=O)O)[C@H](CC(=O)O)C(=O)O)C(=O)O` [sevanol] as the molecule, how does the “analgesic effect on thermal hypersensitivity caused by inflammation” value [3] read?
Its value is “substantial analgesic effects”.

Which results are given for “Mamb-1 (LKCYQHGKVVTCHRDMKFCYHNTGMPFRNLKLILQGCSSSCSETENNKCCSTDRCNK; ends and bridges not checked; cysteine pairing not given here; UniProt P0DKR6 22-78, looked up)”?
analgesic effects [3]: demonstrate analgesic effects; effect of D355A channel mutation on inhibitory potential [4]: did not substantially alter the inhibitory potential; effect of E357A channel mutation on inhibitory potential [5]: did not substantially alter the inhibitory potential; modulation of ASIC1-containing channels ([6]; ref [14],[15]): negatively modulates ASIC1-containing channels but by stabilizing the closed state

With “PcTx1 (EDCIPKWKGCVNRHGDCCEGLECWKRRRSFEVCVPKTPKT; ends and bridges not checked; cysteine pairing not given here; UniProt P60514 1-40, looked up)” as the molecule, how does the analgesic effects [3] read?
The analgesic effects was “demonstrate analgesic effects”.

What about the “modulation of ASIC1a” value ([6]; ref [11],[12],[13]) of the same molecule?
The value was “selectively modulates ASIC1a and ASIC1a-containing channels by stabilizing the desensitized state”.

Which IC50 of inhibition of the pH 5.5-evoked current of rASIC3, two-electrode voltage clamp on X. laevis oocytes [7] does the source give for “Ugr9a-1 peptide from the venom of the sea anemone Urticina grebelnyi” here?
Its IC50 of inhibition of the pH 5.5-evoked current of rASIC3, two-electrode voltage clamp on X. laevis oocytes is 14.2 µM.
